Reference: patent US9751861B2, “N1-(3,3,3-trifluoro-2-hydroxo-2-methylpropionyl)-piperidine derivatives as inhibitors of pyruvate dehydrogenase kinase” (MERCK PATENT GMBH, priority 2013, dated 2017)

Columns and labels:
[1] = target: T1, PDHK2 (Homo sapiens, UniProt Q15119); test: Biochemical activity testing of PDHK2: PDC inactivation assay; conditions: human rec PDHK2, PDC from porcine heart, ATP 5 μM; read-out: IC50 PDHK2 (enzyme assay)
T1 construct: purchased Carna Bioscience
Source text: Biochemical Activity Testing of PDHK2: PDC Inactivation Assay
The biochemical activity assay for PDHK2 is based on the inactivation of PDC through phosphorylation by PDHK2. The assay is run in two steps: the enzymatic PDHK2 reaction in which isolated PDC is phosphorylated by PDHK2 with ATP as co-substrate and the PDC activity assay in which pyruvate and NAD are converted to acetyl-CoA and NADH. The PDC activity correlates to the increase in NADH and thereby is detectable directly via the increasing fluorescence signal (Exc 340 nm, Em 450 nm). Inhibition of PDHK2 results in a lower phosphorylation status and thereby a less decrease in activity of PDC and a stronger increase in NADH fluorescence signal.
The PDC inactivation assay is performed in Greiner 384-well microtiter plates and is used for high throughput screen. 4 μl of PDHK2 (human, rec, Carna Bioscience, 10 ng/μl-137 nM final concentration) and PDC (isolated from porcine heart, Sigma-Aldrich, 20 mU/ml final concentration) are incubated in the absence or presence of the test compound (10 dilution concentrations) for 30 min at room temperature in kinase buffer (15 mM potassium phosphate buffer, pH 7.0, 60 mM KCl, 1.5 mM DTT, 2.5 mM MgCl2, 0.0125% (w/v) BSA, 0.125% Pluronic F-68). The kinase reaction is started by the addition of 4 μl ATP substrate solution (fc 5 μM in kinase buffer). After 30 min incubation at 37° C. 40 μl of PDC reaction solution (100 mM Tris/HCl, pH 7.8, 0.5 mM EDTA, 1 mM MgCl2, 50 mM NaF, 0.25 mM Coenzyme A, 5 mM pyruvate, 1 mM NAD, 5 mM DTT, […] thiamine pyrophosphate) is added. The first fluorescence measurement is performed on a Perkin Elmer Envision (Exc 340 nm, Em 450 nm). The reaction is incubated for 45 min at room temperature. Afterwards a second fluorescence measurement is performed and the PDC activity is calculated by the difference between both measurements. As full value for the PDHK2 assay the inhibitor-free PDHK2 reaction is used. The pharmacological zero value used is DCA (Sigma-Aldrich) in a final concentration of 3 mM. The inhibitory values (IC50) were determined using either the program Symyx Assay Explorer® or Condosseo® from GeneData.

[2] = target: T2, human PDHK2 (12-407) (Homo sapiens, UniProt Q15119); test: Isothermal titration calorimetry (ITC) binding; conditions: 30° C., pH 7.5
T2 construct: The human PDHK2 (12-407) was produced in E. coli; His-tag (cleaved yes); made in house; host or cells: E. coli
Protocol: Isothermal Titration Calorimetry
ITC measurements were performed with a VP-ITC micro calorimeter (Microcal, LLC/GE Healthcare Bio-Sciences AB, Uppsala, Sweden). In general titrations were performed by titrating the protein (50 μM) to the test compound (5 μM) in 12 μl injections. All binding experiments were carried out at 30° C. In general the test compounds were diluted form DMSO stock solutions into the measurement buffer with a maximum final concentration of 1% DMSO. The measurement buffer was 20 mM HEPES, 135 mM KCl, 1 mM TCEP, 2 mM MgCl2, 15 mM NaH2PO4, pH 7.5. The human PDHK2 (12-407) was produced in E. coli as his-tagged protein and purified by affinity chromatography. The tag was removed by side specific proteolysis. Before titration the protein buffer was changed to the measurement buffer containing the same DMSO concentration as the test compound dilution. ITC data analysis was performed using Origin 7 calorimetry software from the same supplier. For most measurements a binding model of one binding site was assumed. According to the applied mathematical model it is possible to calculate the binding constant (KA), the observed binding enthalpy (ΔH^obs) as well as the stoichiometry (N) of the formed complex. Preceding analysis the raw data was corrected for the heats of dilution by extrapolating from the saturation value from the end of titration. In order to allow for direct comparison between the respective experimental series and protein preparations the protein concentration was corrected by referencing titrations to a well behaved standard inhibitor. The apparent stoichiometry values defined the fraction of binding competent protein and compensated for relative errors in protein concentration measurements. This corrected protein concentration was used to set up ITC experiment series with test compounds. Any deviations from ideal 1:1 stoichiometry observed here were attributed to errors in compound concentration. This nominal compound concentration was corrected as well to achieve 1:1 stoichiometry in the fit.

C[C@@](O)(C(=O)N1CCC(c2ccn(-c3ccc(Cl)cn3)n2)CC1)C(F)(F)F [Compound A29, (R)-1-{4-[1-(5-Chloro-pyridin-2-yl)-1H-pyrazol-3-yl]-piperidin-1-yl}-3,3,3-trifluoro-2-hydroxy-2-methyl-propan-1-one]
IC50 [1]: 0.3 to 3 µM | Kd [2]: 0.3 to 3 µM

Cc1cc(C2CCN(C(=O)[C@@](C)(O)C(F)(F)F)CC2)nn1-c1ccc(Cl)cc1 [Compound A34, (R)-1-{4-[1-(4-Chloro-phenyl)-5-methyl-1H-pyrazol-3-yl]-piperidin-1-yl}-3,3,3-trifluoro-2-hydroxy-2-methyl-propan-1-one]
IC50 [1]: 0.3 to 3 µM | Kd [2]: 0.3 to 3 µM

Cc1cc(C2CCN(C(=O)[C@@](C)(O)C(F)(F)F)CC2)nn1-c1ccc(F)cc1 [Compound A40, (R)-1-{4-[1-(4-Fluoro-phenyl)-5-methyl-1H-pyrazol-3-yl]-piperidin-1-yl}-3,3,3-trifluoro-2-hydroxy-2-methyl-propan-1-one]
IC50 [1]: 0.3 to 3 µM

C[C@H]1CN(C(=O)[C@@](C)(O)C(F)(F)F)CC[C@H]1c1ccn(-c2ccc(F)cc2)n1 [Compound A45, (R)-3,3,3-Trifluoro-1-{(3R,4R)-4-[1-(4-fluoro-phenyl)-1H-pyrazol-3-yl]-3-methyl-piperidin-1-yl}-2-hydroxy-2-methyl-propan-1-one]
IC50 [1]: 3 to 50 µM

Cc1cc(C2CCN(C(=O)[C@@](C)(O)C(F)(F)F)CC2)nn1-c1ccccc1 [Compound A47, (R)-1-[4-(5-Methyl-1-phenyl-1H-pyrazol-3-yl)-piperidin-1-yl]-3,3,3-trifluoro-2-hydroxy-2-methyl-propan-1-one]
IC50 [1]: 3 to 50 µM

Cc1cc(C2CCN(C(=O)[C@@](C)(O)C(F)(F)F)CC2)n(-c2ccc(Cl)cc2)n1 [Compound A50, (R)-1-{4-[2-(4-Chloro-phenyl)-5-methyl-2H-pyrazol-3-yl]-piperidin-1-yl}-3,3,3-trifluoro-2-hydroxy-2-methyl-propan-1-one]
IC50 [1]: < 0.3 µM | Kd [2]: < 0.3 µM

C[C@@](O)(C(=O)N1CCC(c2ccnn2C2CCCC2)CC1)C(F)(F)F [Compound A51, (R)-1-[4-(2-Cyclopentyl-2H-pyrazol-3-yl)-piperidin-1-yl]-3,3,3-trifluoro-2-hydroxy-2-methyl-propan-1-one]
IC50 [1]: 0.3 to 3 µM

Cn1nccc1C1CCN(C(=O)[C@@](C)(O)C(F)(F)F)CC1 [Compound A52, (R)-3,3,3-Trifluoro-2-hydroxy-2-methyl-1-[4-(2-methyl-2H-pyrazol-3-yl)piperidin-1-yl]-propan-1-one]
IC50 [1]: 0.3 to 3 µM | Kd [2]: 0.3 to 3 µM

C[C@@](O)(C(=O)N1CCC(n2cnnc2-c2ccc(Cl)cc2)CC1)C(F)(F)F [Compound A56, (R)-1-{4-[3-(4-Chloro-phenyl)-[1,2,4]triazol-4-yl]-piperidin-1-yl}-3,3,3-trifluoro-2-hydroxy-2-methyl-propan-1-one]
IC50 [1]: 0.3 to 3 µM | Kd [2]: 0.3 to 3 µM

Cc1ccc(-n2nncc2C2CCN(C(=O)[C@@](C)(O)C(F)(F)F)CC2)cc1 [Compound A59, (R)-3,3,3-Trifluoro-2-hydroxy-2-methyl-1-[4-(3-p-tolyl-3 H-[1,2,3]triazol-4-yl)piperidin-1-yl]-propan-1-one]
IC50 [1]: 0.3 to 3 µM

C[C@@](O)(C(=O)N1CCC(c2nccn2-c2ccc(Cl)cc2)CC1)C(F)(F)F [Compound A69, (R)-1-{4-[1-(4-Chloro-phenyl)-1H-imidazol-2-yl]-piperidin-1-yl}-3,3,3-trifluoro-2-hydroxy-2-methyl-propan-1-one]
IC50 [1]: 0.3 to 3 µM

C[C@@](O)(C(=O)N1CCC(c2nncn2-c2ccc(Cl)cc2)CC1)C(F)(F)F [Compound A73, (R)-1-{4-[4-(4-Chloro-phenyl)-4H-[1,2,4]triazol-3-yl]-piperidin-1-yl}-3,3,3-trifluoro-2-hydroxy-2-methyl-propan-1-one]
IC50 [1]: 0.3 to 3 µM

CN1CCC(n2nccc2C2CCN(C(=O)[C@@](C)(O)C(F)(F)F)CC2)CC1 [Compound A75, (R)-3,3,3-Trifluoro-2-hydroxy-2-methyl-1-{4-[2-(1-methyl-piperidin-4-yl)-2H-pyrazol-3-yl]-piperidin-1-yl}-propan-1-one]
IC50 [1]: 3 to 50 µM

CC(C)Cn1nccc1C1CCN(C(=O)[C@@](C)(O)C(F)(F)F)CC1 [Compound A76, (R)-3,3,3-Trifluoro-2-hydroxy-1-[4-(2-isobutyl-1H-pyrazol-3-yl)-1-piperidyl]-2-methyl-propan-1-one]
IC50 [1]: 3 to 50 µM

C[C@@](O)(C(=O)N1CCC(c2ccnn2-c2ccc(C#N)nc2)CC1)C(F)(F)F [Compound A81, 5-{5-[1-((R)-3,3,3-Trifluoro-2-hydroxy-2-methyl-propionyl)-piperidin-4-yl]-pyrazol-1-yl}-pyridine-2-carbonitrile]
IC50 [1]: 0.3 to 3 µM

C[C@@](O)(C(=O)N1CCC(c2ccnn2-c2ccc(C(F)(F)F)cn2)CC1)C(F)(F)F [Compound A84, (R)-3,3,3-Trifluoro-2-hydroxy-2-methyl-1-{4-[2-(5-trifluoromethyl-pyridin-2-yl)-2H-pyrazol-3-yl]-piperidin-1-yl}-propan-1-one]
IC50 [1]: 0.3 to 3 µM

C[C@@](O)(C(=O)N1CCC(c2ccnn2-c2ccccc2C(F)(F)F)CC1)C(F)(F)F [Compound A89, (R)-3,3,3-Trifluoro-2-hydroxy-2-methyl-1-[4-[2-[2-(trifluoromethyl)phenyl]-2H-pyrazol-3-yl]-1-piperidyl]propan-1-one]
IC50 [1]: 0.3 to 3 µM

COc1cc(F)ccc1-n1nccc1C1CCN(C(=O)[C@@](C)(O)C(F)(F)F)CC1 [Compound A90, (R)-3,3,3-Trifluoro-1-{4-[2-(4-fluoro-2-methoxy-phenyl)-2H-pyrazol-3-yl]-piperidin-1-yl}-2-hydroxy-2-methyl-propan-1-one]
IC50 [1]: 0.3 to 3 µM

Cn1ccc(C2CCN(C(=O)[C@@](C)(O)C(F)(F)F)CC2)n1 [Compound A99, (R)-3,3,3-Trifluoro-2-hydroxy-2-methyl-1-[4-(1-methyl-1H-pyrazol-3-yl)piperidin-1-yl]-propan-1-one]
IC50 [1]: 3 to 50 µM

C[C@@](O)(C(=O)N1CCC(c2ccn(-c3ncc(Cl)cn3)n2)CC1)C(F)(F)F [Compound A103, (R)-1-{4-[1-(5-Chloro-pyrimidin-2-yl)-1H-pyrazol-3-yl]-piperidin-1-yl}-3,3,3-trifluoro-2-hydroxy-2-methyl-propan-1-one]
IC50 [1]: 3 to 50 µM

C[C@@](O)(C(=O)N1CCC(c2ccn[nH]2)CC1)C(F)(F)F [Compound A104, (R)-3,3,3-Trifluoro-2-hydroxy-2-methyl-1-[4-(2H-pyrazol-3-yl)-piperidin-1-yl]-propan-1-one]
IC50 [1]: 3 to 50 µM

C[C@@](O)(C(=O)N1CCC(c2ccn(-c3ncc(F)cc3F)n2)CC1)C(F)(F)F [Compound A109, (R)-1-{4-[1-(3,5-Difluoro-pyridin-2-yl)-1H-pyrazol-3-yl]-piperidin-1-yl}-3,3,3-trifluoro-2-hydroxy-2-methyl-propan-1-one]
IC50 [1]: 0.3 to 3 µM

CC(C)Cn1ccc(C2CCN(C(=O)[C@@](C)(O)C(F)(F)F)CC2)n1 [Compound A114, (R)-3,3,3-Trifluoro-2-hydroxy-1-[4-(1-isobutyl-1H-pyrazol-3-yl)-piperidin-1-yl]-2-methyl-propan-1-one]
IC50 [1]: 0.3 to 3 µM
